Reference: US5710130A, “Antithrombotic agents” (Eli Lilly and Company, priority 1995, dated 1998)
Where a name gives a salt, the structure may show the parent alone.

What was measured:
Type in all cases: biochemical
human plasma [1] = experiment: Human plasma anticoagulation, thrombin time (TT); conditions: concentration required to double thrombin time, linear extrapolation
Protocol: (§1) Dog plasma and rat plasma is obtained from conscious mixed-breed hounds (either sex, Hazelton-LRE, Kalamazoo, Mich., U.S.A.) or from anesthetized male Sprague-Dawley rats (Harlan Sprague-Dawley, Inc., Indianapolis, Ind., U.S.A.) by venipuncture into 3.8 percent citrate. Fibrinogen is prepared from in-date ACD human blood as the fraction I-2 according to previous procedures and specifications. […] Human fibrinogen is also purchased as 98 percent pure/plasmin free from American Diagnostica, Greenwich, Conn. Coagulation reagents ACTIN, Thromboplastin, and Human plasma are from Baxter Healthcare Corp., Dade Division, Miami, Fla. Bovine thrombin from Parke-Davis ([…], Mich.) is used for coagulation assays in plasma.
(§2) Coagulation assay procedures are as previously described. […] A CoAScreener coagulation instrument (American LABor, Inc.) is used for all coagulation assay measurements. The prothrombin time (PT) is measured by adding 0.05 mL saline and 0.05 mL Thromboplastin-C reagent to 0.05 mL test plasma. The activated partial thromboplastin time (APTT) is measured by incubation of 0.05 mL test plasma with 0.05 mL Actin reagent for 120 seconds followed by 0.05 mL CaCl2 (0.02M). The thrombin time (TT) is measured by adding 0.05 mL saline and 0.05 mL thrombin (10 NIH units/mL) to 0.05 mL test plasma. The compounds of Formula I are added to human or animal plasma over a wide range of concentrations to determine prolongation effects on the APTT, PT, and TT assays. Linear extrapolations are performed to estimate the concentrations required to double the clotting time for each assay.

human plasma [2] = experiment: Human plasma anticoagulation, activated partial thromboplastin time (APTT); conditions: concentration required to double APTT, linear extrapolation
Protocol: as §1, §2

human plasma [3] = experiment: Human plasma anticoagulation, prothrombin time (PT); conditions: concentration required to double PT, linear extrapolation
Protocol: as §1, §2

Compound: CCS(=O)(=O)N[C@H](Cc1ccccc1)C(=O)N1CCC[C@H]1C(=O)NCCc1ccc(NC(=N)N)cc1 [Example 35, EtSO2 -D-Phe-Pro-p-NHCH2 CH2 C6 H4 NHC(NH)NH2.HCl]
- Human Plasma Anticoagulation 2x Clotting time TT (human plasma [1]): 4,500 ng/mL
- Human Plasma Anticoagulation 2x Clotting time APTT (human plasma [2]): 50,400 ng/mL
- Human Plasma Anticoagulation 2x Clotting time PT (human plasma [3]): 78,400 ng/mL

Compound: CCS(=O)(=O)N[C@H](Cc1ccccc1)C(=O)N1CCC[C@H]1C(=O)NCc1cccc(NC(=N)N)c1 [Example 36, EtSO2 -D-Phe-Pro-m-NHCH2 C6 H4 NHC(NH)NH2.HCl]
- Human Plasma Anticoagulation 2x Clotting time TT (human plasma [1]): 7,700 ng/mL
- Human Plasma Anticoagulation 2x Clotting time APTT (human plasma [2]): > 91,000 ng/mL
- Human Plasma Anticoagulation 2x Clotting time PT (human plasma [3]): > 91,000 ng/mL

Compound: N=C(N)c1ccc(CNC(=O)[C@@H]2CCCN2C(=O)[C@@H](CC2CCCCC2)NCC(=O)O)cc1 [Example 48, N-(carboxymethyl)-D-cyclohexylalanyl-N-[[4-(aminoiminomethyl)phenyl]methyl]-L-prolinamide]
- Human Plasma Anticoagulation 2x Clotting time TT (human plasma [1]): 2 ng/mL
- Human Plasma Anticoagulation 2x Clotting time APTT (human plasma [2]): 33 ng/mL
- Human Plasma Anticoagulation 2x Clotting time PT (human plasma [3]): 59 ng/mL

Compound: N=C(N)c1ccc(CNC(=O)[C@@H]2CCCN2C(=O)[C@H](N)CC2CCCCC2)cc1 [Example 51, D-cyclohexylalanyl-N-[[4-(aminoiminomethyl)phenyl]methyl]-L-prolinamide di-hydrochloride]
- Human Plasma Anticoagulation 2x Clotting time TT (human plasma [1]): 2 ng/mL
- Human Plasma Anticoagulation 2x Clotting time APTT (human plasma [2]): 48 ng/mL
- Human Plasma Anticoagulation 2x Clotting time PT (human plasma [3]): 110 ng/mL

Compound: N=C(N)c1ccc(CNC(=O)[C@@H]2CCCN2C(=O)[C@@H](CC2CCCCC2)NCCC(=O)O)cc1 [Example 52, N-(2-carboxyethyl)-D-cyclohexylalanyl-N-[[4-(aminoiminomethyl)phenyl]methyl]-L-prolinamide hydrochloride]
- Human Plasma Anticoagulation 2x Clotting time TT (human plasma [1]): 6 ng/mL
- Human Plasma Anticoagulation 2x Clotting time APTT (human plasma [2]): 80 ng/mL
- Human Plasma Anticoagulation 2x Clotting time PT (human plasma [3]): 170 ng/mL

Compound: N=C(N)N1CCC(CNC(=O)[C@@H]2CCCN2C(=O)[C@@H](CC2CCCCC2)NCC(=O)O)CC1 [Example 56, N-(carboxymethyl)-D-cyclohexylalanyl-N-[[1-(aminoiminomethyl)-hexahydropyridin-4-yl-]methyl]-L-prodimamide hydrochloride]
- Human Plasma Anticoagulation 2x Clotting time TT (human plasma [1]): 5 ng/mL
- Human Plasma Anticoagulation 2x Clotting time APTT (human plasma [2]): 160 ng/mL
- Human Plasma Anticoagulation 2x Clotting time PT (human plasma [3]): 200 ng/mL

Compound: N=C(N)N1CC=C(CNC(=O)[C@@H]2CCCN2C(=O)[C@@H](CC2CCCCC2)NCC(=O)O)CC1 [Example 70, N-(carboxymethyl)-D-cyclohexylalanyl-N-[[1-(aminoiminomethyl)-1,2,3,6-tetrahydropyridin-4-yl]methyl]-L-prolinamide hydrochloride]
- Human Plasma Anticoagulation 2x Clotting time TT (human plasma [1]): 2 ng/mL
- Human Plasma Anticoagulation 2x Clotting time APTT (human plasma [2]): 160 ng/mL
- Human Plasma Anticoagulation 2x Clotting time PT (human plasma [3]): 180 ng/mL

Compound: NCC1CCC(CNC(=O)[C@@H]2CCCN2C(=O)[C@@H](CC2CCCCC2)NCC(=O)O)CC1 (stereo partly drawn) [Example 79, HO2 CCH2 -D-Cha-Pro-4-NHCH2 C6 H10 CH2 NH2.HCl]
- Human Plasma Anticoagulation 2x Clotting time TT (human plasma [1]): 140 ng/mL
- Human Plasma Anticoagulation 2x Clotting time APTT (human plasma [2]): 1,700 ng/mL
- Human Plasma Anticoagulation 2x Clotting time PT (human plasma [3]): 2,400 ng/mL

Compound: CCS(=O)(=O)N[C@H](CC1CCCCC1)C(=O)N1CCC[C@H]1C(=O)NCc1ccc(CN)cc1 [Example 81, EtSO2 -D-Cha-Pro-4-NHCH2 C6 H4 CH2 NH2.HCl]
- Human Plasma Anticoagulation 2x Clotting time TT (human plasma [1]): 110 ng/mL
- Human Plasma Anticoagulation 2x Clotting time APTT (human plasma [2]): 1,500 ng/mL
- Human Plasma Anticoagulation 2x Clotting time PT (human plasma [3]): 2,700 ng/mL
